Measurements taken from the NIST ThermoML archive (doi:10.1021/je800964k).

Conditions: Liquid, Hot wire method

COC [dimethyl ether]
Conditions	thermal conductivity [W/m/K]
234.04 K, 5100 kPa	0.1561
234.2 K, 600 kPa	0.1534
234.29 K, 600 kPa	0.153
234.33 K, 10000 kPa	0.16
234.43 K, 29800 kPa	0.1704
234.44 K, 30000 kPa	0.1709
234.58 K, 600 kPa	0.1538
234.66 K, 5300 kPa	0.1568
234.7 K, 20200 kPa	0.1655
234.71 K, 10400 kPa	0.1605
234.72 K, 5300 kPa	0.1562
234.79 K, 30100 kPa	0.1703
235 K, 20100 kPa	0.1654
235.27 K, 20200 kPa	0.1655
235.32 K, 10700 kPa	0.1598
253.99 K, 10200 kPa	0.1528
254.02 K, 600 kPa	0.1422
254.11 K, 20400 kPa	0.1582
254.12 K, 30200 kPa	0.1633
254.16 K, 600 kPa	0.1427
254.2 K, 20100 kPa	0.1579
254.22 K, 10400 kPa	0.1529
254.34 K, 30300 kPa	0.1643
254.37 K, 20100 kPa	0.1583
254.42 K, 600 kPa	0.1427
254.42 K, 5100 kPa	0.1467
254.81 K, 10100 kPa	0.1522
254.88 K, 5100 kPa	0.1466
255.08 K, 5000 kPa	0.1471
257.35 K, 29900 kPa	0.164
273.93 K, 5000 kPa	0.1396
274.08 K, 5100 kPa	0.1396
274.48 K, 5000 kPa	0.1404
274.56 K, 29800 kPa	0.1585
274.57 K, 30400 kPa	0.1579
274.6 K, 20000 kPa	0.1523
274.9 K, 10500 kPa	0.1456
274.9 K, 20300 kPa	0.1522
275.12 K, 20300 kPa	0.1523
275.22 K, 10200 kPa	0.1452
275.3 K, 30600 kPa	0.1582
275.31 K, 700 kPa	0.1342
275.74 K, 700 kPa	0.1343
276.02 K, 10500 kPa	0.1459
276.44 K, 700 kPa	0.1347
293.79 K, 5100 kPa	0.1305
293.8 K, 800 kPa	0.1249
294.15 K, 800 kPa	0.1252
294.16 K, 10000 kPa	0.1362
294.22 K, 10200 kPa	0.1364
294.3 K, 29800 kPa	0.1495
294.45 K, 800 kPa	0.1248
294.45 K, 4900 kPa	0.1305
294.59 K, 29900 kPa	0.1486
294.68 K, 20600 kPa	0.1417
294.84 K, 5200 kPa	0.1307
295.13 K, 20300 kPa	0.1417
295.22 K, 10000 kPa	0.1356
296.32 K, 20200 kPa	0.1415
314.01 K, 5100 kPa	0.1191
314.06 K, 1000 kPa	0.1143
314.11 K, 5200 kPa	0.1189
314.39 K, 1000 kPa	0.1145
314.39 K, 5100 kPa	0.1195
314.43 K, 10200 kPa	0.1242
314.6 K, 30100 kPa	0.1385
314.66 K, 1000 kPa	0.1137
314.81 K, 10200 kPa	0.1241
314.88 K, 30000 kPa	0.1382
315.01 K, 20400 kPa	0.1313
315.06 K, 10100 kPa	0.1242
315.07 K, 20100 kPa	0.1318
315.37 K, 30400 kPa	0.1384
315.55 K, 20000 kPa	0.1318
333.73 K, 1500 kPa	0.1079
333.92 K, 5200 kPa	0.1113
334.03 K, 1500 kPa	0.1075
334.09 K, 30000 kPa	0.1283
334.31 K, 20200 kPa	0.1229
334.38 K, 30100 kPa	0.1287
334.47 K, 1500 kPa	0.1078
334.55 K, 5100 kPa	0.1108
334.7 K, 10200 kPa	0.1156
334.79 K, 20200 kPa	0.1224
334.85 K, 5200 kPa	0.1116
334.9 K, 30200 kPa	0.1288
334.91 K, 10200 kPa	0.1154
335.09 K, 30400 kPa	0.1294
335.29 K, 20100 kPa	0.1228
335.37 K, 10100 kPa	0.1151
335.72 K, 20000 kPa	0.1223
335.76 K, 10300 kPa	0.1146
353.73 K, 10300 kPa	0.1059
353.93 K, 30500 kPa	0.1206
353.97 K, 30100 kPa	0.1208
354.06 K, 10200 kPa	0.1053
354.1 K, 20400 kPa	0.1145
354.15 K, 5800 kPa	0.0998
354.21 K, 2300 kPa	0.0973
354.29 K, 5300 kPa	0.1005
354.45 K, 2300 kPa	0.097
354.59 K, 30100 kPa	0.1208
354.86 K, 2300 kPa	0.0971
354.97 K, 5200 kPa	0.1
355.08 K, 20000 kPa	0.1141
355.18 K, 2300 kPa	0.0971
355.36 K, 20100 kPa	0.1142
355.46 K, 5200 kPa	0.1012
374.25 K, 10700 kPa	0.0988
374.25 K, 20500 kPa	0.1071
374.3 K, 30400 kPa	0.1129
374.62 K, 30300 kPa	0.1133
374.81 K, 29900 kPa	0.1135
374.85 K, 3300 kPa	0.0871
374.85 K, 5100 kPa	0.0908
374.91 K, 5000 kPa	0.0908
375.13 K, 3300 kPa	0.0869
375.27 K, 5000 kPa	0.0911
375.38 K, 3300 kPa	0.0867
375.68 K, 20200 kPa	0.1065
376.02 K, 20000 kPa	0.1065
376.38 K, 10600 kPa	0.0976
